According to patent publication US20210189342A1, “COMPOSITIONS AND METHODS FOR MODULATING MONOCYTE AND MACROPHAGE INFLAMMATORY PHENOTYPES AND IMMUNOTHERAPY USES THEREOF” (Verseau Therapeutics, Inc., priority 2018, published 2021):

Tested on: CD207
Assay: siRNA dose response, CD207 mRNA knockdown, Dual-Glo Luciferase Assay
Assay type: cell-based, human
Conditions: Hepal-6 + reporter plasmid, 24 hr
Experimental: (§1) Dose response curves for siRNAs were generated in vitro using a variety of cell lines according to Table 4.
(§2) Briefly, cells were seeded in 96-well plates and reverse transfected with siRNA, Lipofectamine® 2000 (0.5 uL/well; ThermoFisher), and, in some cases, a reporter plasmid (50 ng/well). The reporter plasmid (psiCHECK™-2, Promega) encoded both firefly luciferase and the gene of interest fused to renilla luciferase; silencing of the gene of interest results in proportional silencing of renilla luciferase but leaves firefly luciferase unaffected as an internal control.
(§3) After 24 hr incubation at 37° C., mRNA knockdown was measured using an endpoint assay. For targets without a reporter plasmid, a branched DNA (bDNA) assay was performed according to the manufacturer's instructions (QuantiGene® Singleplex Gene Expression Assay, ThermoFisher) to measure both the target gene and GAPDH (housekeeping gene) mRNA. Data are plotted as siRNA concentration (nM) vs. remaining mRNA (ratio of target gene to GAPDH, normalized to mock siRNA-transfected cells). For targets with a reporter plasmid, a Dual-Glo® Luciferase Assay was performed according to the manufacturer's instructions (Promega) to measure firefly and renilla luciferase expression. Data are plotted as siRNA concentration (nM) vs. remaining mRNA (ratio of renilla to firefly luminescence, normalized to mock siRNA-transfected cells).
(§4) For all dose response curves, a 4-parameter logistic model was applied to determine the IC50 of each siRNA sequence (Table 5 and FIG. 2). Data shown in Table 5 and FIG. 2 represent the mean of quadruplicates, +/−standard deviation.

For “XD-09246: siRNA targeting CD207 (sense 5'-aaAuAcAAAGAuccGGGcAdTsdT-3'; antisense 5'-UGCCCGGAUCUUUGuAUUUdTsdT-3'; as printed in the source, key not given here)”, which IC50 is on record?
Its IC50 is 0.025 nM.

How did the IC50 turn out when “XD-09242: siRNA targeting CD207 (sense 5'-caGuccGuGcuGcauuAAudTsdT-3'; antisense 5'-AUuAAUGcAGcACGGACUGdTsdT-3'; as printed in the source, key not given here)” was run?
Its IC50 is 0.009 nM.

How did the IC50 turn out when “XD-09241: siRNA targeting CD207 (sense 5'-gaAAAcAcccAcAguccGudTsdT-3'; antisense 5'-ACGGACUGUGGGUGUUUUCdTsdT-3'; as printed in the source, key not given here)” was run?
The IC50 was 0.203 nM.

With “XD-09245: siRNA targeting CD207 (sense 5'-gcGuucAGAuccAgAuGGudTsdT-3'; antisense 5'-ACcAUCUGGAUCUGAACGCdTsdT-3'; as printed in the source, key not given here)” as the substance, how does the IC50 read?
Its IC50 is 0.02 nM.

Which IC50 does the source give for “XD-09243: siRNA targeting CD207 (sense 5'-guccGuGcuGcAuuAAucudTsdT-3'; antisense 5'-AGAUuAAUGcAGcACGGACdTsdT-3'; as printed in the source, key not given here)” here?
The IC50 was 0.198 nM.

Which IC50 does the source give for “XD-09249: siRNA targeting CD207 (sense 5'-uauAGuGccGAGcaGuucudTsdT-3'; antisense 5'-AGAACUGCUCGGcACuAuAdTsdT-3'; RNA with 2'-O-methyl and phosphorothioate modifications, case key not given here, as printed in the source, key not given here)” here?
The IC50 was 0.153 nM.

For “XD-09240: siRNA targeting CD207 (sense 5'-guGAGcAcucAGGauGAcudTsdT-3'; antisense 5'-AGUcAUCCUGAGUGCUcACdTsdT-3'; as printed in the source, key not given here)”, which IC50 is on record?
The IC50 was 0.678 nM.

“XD-09248: siRNA targeting CD207 (sense 5'-uauucuAcAGGuGguuucudTsdT-3'; antisense 5'-AGAAACcACCUGuAGAAuAdTsdT-3'; as printed in the source, key not given here)” was tested. Which IC50 did it give?
The IC50 was less than 0.005 nM.

Tested on: TNFAIP8L2
Assay: siRNA dose response, TNFAIP8L2 mRNA knockdown, bDNA Assay
Assay type: cell-based, human
Conditions: THP-1, 24 hr
Experimental: as §1, §2, §3, §4

With “XD-09761: siRNA targeting TNFAIP8L2 (sense 5'-ggucAGGuGGAGAucucuudTsdT-3'; antisense 5'-AAGAGAUCUCcACCUGACCdTsdT-3'; RNA with 2'-O-methyl and phosphorothioate modifications, case key not given here, as printed in the source, key not given here)” as the substance, how does the IC50 read?
The IC50 was 0.701 nM.

How did the IC50 turn out when “XD-09764: siRNA targeting TNFAIP8L2 (sense 5'-cguuGcGcuGGAAgGAAuudTsdT-3'; antisense 5'-AAUUCCUUCcAGCGcAACGdTsdT-3'; as printed in the source, key not given here)” was run?
Its IC50 is 2.98 nM.

For “XD-09760: siRNA targeting TNFAIP8L2 (sense 5'-ggAccAGGccGuGaucucudTsdT-3'; antisense 5'-AGAGAUcACGGCCUGGUCCdTsdT-3'; RNA with 2'-O-methyl and phosphorothioate modifications, case key not given here, as printed in the source, key not given here)”, which IC50 is on record?
The IC50 was 0.058 nM.

For “XD-09765: siRNA targeting TNFAIP8L2 (sense 5'-cuGcGcGAGGcGcaAuAcAdTsdT-3'; antisense 5'-UGuAUUGCGCCUCGCGcAGdTsdT-3'; RNA with 2'-O-methyl and phosphorothioate modifications, case key not given here, as printed in the source, key not given here)”, which IC50 is on record?
Its IC50 is 0.023 nM.

For “XD-09796: siRNA targeting TNFAIP8L2 (sense 5'-gcAcAuAGcAAGcuGAAcudTsdT-3'; antisense 5'-AGUUcAGCUUGCuAUGUGCdTsdT-3'; RNA with 2'-O-methyl and phosphorothioate modifications, case key not given here, as printed in the source, key not given here)”, which IC50 is on record?
The IC50 was 11.6 nM.

With “XD-09768: siRNA targeting TNFAIP8L2 (sense 5'-aaAucAAucAuGuuAcAcudTsdT-3'; antisense 5'-AGUGuAAcAUGAUUGAUUUdTsdT-3'; RNA with 2'-O-methyl and phosphorothioate modifications, case key not given here, as printed in the source, key not given here)” as the substance, how does the IC50 read?
The IC50 was 0.353 nM.

How did the IC50 turn out when “XD-09762: siRNA targeting TNFAIP8L2 (sense 5'-uuuAAuGuAucGcuAccAAdTsdT-3'; antisense 5'-UUGGuAGCGAuAcAUuAAAdTsdT-3'; as printed in the source, key not given here)” was run?
The IC50 was 0.226 nM.

“XD-09766: siRNA targeting TNFAIP8L2 (sense 5'-cccucGAuGuAcAuAGcuudTsdT-3'; antisense 5'-AAGCuAUGuAcAUCGAGGGdTsdT-3'; RNA with 2'-O-methyl and phosphorothioate modifications, case key not given here, as printed in the source, key not given here)” was tested. Which IC50 did it give?
The IC50 was 0.127 nM.

Tested on: SPI1
Assay: siRNA dose response, SPI1 mRNA knockdown, bDNA Assay
Assay type: cell-based, human
Conditions: THP-1, 24 hr
Experimental: as §1, §2, §3, §4

For “XD-09786: siRNA targeting SPI1 (sense UCUCAAGUCCGUAUGUAAATT; antisense UUUACAUACGGACUUGAGATT; 2'-O-methyl and phosphorothioate modified, lower-case key not given here)”, which IC50 is on record?
The IC50 was 0.25 nM.

For “XD-09781: siRNA targeting SPI1 (sense CGCCAAACGCACGAGUAUUTT; antisense AAUACUCGUGCGUUUGGCGTT; 2'-O-methyl and phosphorothioate modified, lower-case key not given here)”, which IC50 is on record?
The IC50 was 0.455 nM.

For “XD-09789: siRNA targeting SPI1 (sense 5'-aaAGuuAuucucAauccAudTsdT-3'; antisense 5'-AUGGAUUGAGAAuAACUUUdTsdT-3'; as printed in the source, key not given here)”, which IC50 is on record?
The IC50 was 0.442 nM.

For “XD-09788: siRNA targeting SPI1 (sense 5'-acAAGuAAAGuuAuucucAdTsdT-3'; antisense 5'-UGAGAAuAACUUuACUUGUdTsdT-3'; as printed in the source, key not given here)”, which IC50 is on record?
Its IC50 is 1.32 nM.

For “XD-09787: siRNA targeting SPI1 (sense CCGUAUGUAAAUCAGAUCUTT; antisense AGAUCUGAUUUACAUACGGTT; 2'-O-methyl and phosphorothioate modified, lower-case key not given here)”, which IC50 is on record?
The IC50 was 0.075 nM.

“XD-09783: siRNA targeting SPI1 (sense GCGACAUGAAGGACAGCAUTT; antisense AUGCUGUCCUUCAUGUCGCTT; 2'-O-methyl and phosphorothioate modified, lower-case key not given here)” was tested. Which IC50 did it give?
Its IC50 is 1.11 nM.

Which IC50 does the source give for “XD-09785: siRNA targeting SPI1 (sense GUCUCAAGUCCGUAUGUAATT; antisense UUACAUACGGACUUGAGACTT; 2'-O-methyl and phosphorothioate modified, lower-case key not given here)” here?
Its IC50 is 0.479 nM.

With “XD-09780: siRNA targeting SPI1 (sense GGAUCUAUACCAACGCCAATT; antisense UUGGCGUUGGUAUAGAUCCTT; 2'-O-methyl and phosphorothioate modified, lower-case key not given here)” as the substance, how does the IC50 read?
Its IC50 is 2.66 nM.

Tested on: SELPLG
Assay: siRNA dose response, SELPLG mRNA knockdown, bDNA Assay
Assay type: cell-based, human
Conditions: THP-1, 24 hr
Experimental: as §1, §2, §3, §4

“XD-09263: siRNA targeting SELPLG (sense 5'-gcAcAGAccAcucaAcccAdTsdT-3'; antisense 5'-UGGGUUGAGUGGUCUGUGCdTsdT-3'; as printed in the source, key not given here)” was tested. Which IC50 did it give?
The IC50 was 2.96 nM.

“XD-09262: siRNA targeting SELPLG (sense 5'-ccGAAuAuGAGuAccuAGAdTsdT-3'; antisense 5'-UCuAGGuACUcAuAUUCGGdTsdT-3'; as printed in the source, key not given here)” was tested. Which IC50 did it give?
Its IC50 is 1.35 nM.

For “XD-09267: siRNA targeting SELPLG (sense 5'-acuGAAGAGuGAcgGAcuudTsdT-3'; antisense 5'-AAGUCCGUcACUCUUcAGUdTsdT-3'; RNA with 2'-O-methyl and phosphorothioate modifications, case key not given here, as printed in the source, key not given here)”, which IC50 is on record?
Its IC50 is 1.07 nM.

With “XD-09268: siRNA targeting SELPLG (sense 5'-ccAAGGGcAGAccuuucuudTsdT-3'; antisense 5'-AAGAAAGGUCUGCCCUUGGdTsdT-3'; RNA with 2'-O-methyl and phosphorothioate modifications, case key not given here, as printed in the source, key not given here)” as the substance, how does the IC50 read?
The IC50 was 0.471 nM.

With “XD-09261: siRNA targeting SELPLG (sense 5'-ccAccGAAuAUGAguAccudTsdT-3'; antisense 5'-AGGuACUcAuAUUCGGUGGdTsdT-3'; as printed in the source, key not given here)” as the substance, how does the IC50 read?
Its IC50 is 0.386 nM.
